Reference: the supplement of paper PMC8960247
± gives the standard error.

What was measured:
621-102 (TSC2-deficient) = test: relative viability vs DMSO; higher = less cytotoxic; details: serum: 10% FBS, 72 h
621-103 (TSC2-rescued) = test: as above; details: serum: 10% FBS, 72 h
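Note: immortalized renal angiomyolipoma cells stably carrying empty vector or TSC2, dosed in 384-well plates in DMEM, viability normalized to vehicle-treated wells within each plate.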

Structure (SMILES)	relative viability (621-102 (TSC2-deficient); 0.0001 µM)	relative viability (621-102 (TSC2-deficient); 0.001 µM)	relative viability (621-102 (TSC2-deficient); 0.01 µM)	relative viability (621-102 (TSC2-deficient); 0.1 µM)	relative viability (621-102 (TSC2-deficient); 1 µM)	relative viability (621-102 (TSC2-deficient); 10 µM)	relative viability (621-103 (TSC2-rescued); 0.0001 µM)	relative viability (621-103 (TSC2-rescued); 0.001 µM)	relative viability (621-103 (TSC2-rescued); 0.01 µM)	relative viability (621-103 (TSC2-rescued); 0.1 µM)	relative viability (621-103 (TSC2-rescued); 1 µM)	relative viability (621-103 (TSC2-rescued); 10 µM)
COc1cc2c(Oc3ccc(NC(=O)C4(C(=O)Nc5ccc(F)cc5)CC4)cc3F)ccnc2cc1OCCCN1CCOCC1	108 ± 7.4%	111 ± 6.2%	98 ± 5.1%	102 ± 5.8%	84.55 ± 0.78%	2.81 ± 0.28%	97.08 ± 0.89%	97.1 ± 1.1%	93.9 ± 3.7%	91.72 ± 0.35%	69.1 ± 1.5%	1.1 ± 0.14%
COc1cc2ncnc(-n3nc(-c4ccccn4)nc3N)c2cc1OC	101 ± 1.5%	103 ± 2.7%	107 ± 2.2%	98.84 ± 0.53%	94.28 ± 0.36%	49.6 ± 1.6%	106 ± 1.7%	107 ± 2.5%	109 ± 4%	108.3 ± 0.77%	110.4 ± 0.79%	48.2 ± 3.8%
COc1ccc([C@]2(C#N)CC[C@@H](C(=O)O)CC2)cc1OC1CCCC1	96.5 ± 2.4%	102.9 ± 0.13%	95.4 ± 2.6%	102 ± 2.7%	105 ± 1.7%	98.6 ± 0.28%	102.2 ± 0.093%	98 ± 0.98%	97.1 ± 1.8%	106.2 ± 0.53%	93.85 ± 0.76%	93.4 ± 2.3%
COc1ccccc1N1CCN(CCN(C(=O)C2CCCCC2)c2ccccn2)CC1	108 ± 0.74%	102.3 ± 0.41%	100 ± 1.5%	104.2 ± 0.32%	97.19 ± 0.27%	99.4 ± 1%	102.1 ± 1%	99 ± 5.8%	99.5 ± 5.7%	110 ± 1.8%	108 ± 1.8%	98.5 ± 2.6%
COc1ccnc2[nH]cc(C(=O)C(=O)N3CCN(C(=O)c4ccccc4)C[C@H]3C)c12	105 ± 6.5%	106 ± 3.8%	111 ± 2.5%	107 ± 2.7%	86 ± 1.2%	88.5 ± 5.7%	112 ± 3.3%	112 ± 1.2%	108 ± 1.6%	103 ± 1.8%	106 ± 1.2%	115 ± 1.5%
C[C@@H]1CCN(C(=O)CC#N)C[C@@H]1N(C)c1ncnc2[nH]ccc12	113 ± 2.6%	98.5 ± 1.1%	106 ± 4.8%	109 ± 1.1%	98.6 ± 2.7%	104 ± 1.3%	104 ± 4.3%	100 ± 2.5%	99.134 ± 0.051%	102 ± 2.4%	107 ± 0.27%	96.7 ± 1.1%
C[C@@H]1CCO[C@H]2Cn3cc(C(=O)NCc4ccc(F)cc4F)c(=O)c(O)c3C(=O)N12	102 ± 1.5%	104 ± 2.7%	102.2 ± 0.83%	106 ± 2.5%	93.7 ± 9.2%	108 ± 3.5%	111.7 ± 0.85%	109 ± 5.8%	111 ± 2.1%	117 ± 2.9%	112 ± 4%	109 ± 3.2%
C[S+]([O-])c1ccc(-c2nc(-c3ccc(F)cc3)c(-c3ccncc3)[nH]2)cc1 (stereo not given)	112 ± 5%	108.1 ± 0.69%	98.1 ± 2.8%	102 ± 1.2%	111 ± 2%	110 ± 2.8%	101.3 ± 0.64%	98.42 ± 0.75%	98.6 ± 1.3%	99.1 ± 2%	100 ± 1.8%	98.1 ± 1.3%
Cc1[nH]c(/C=C2\C(=O)Nc3ccc(S(=O)(=O)N(C)c4cccc(Cl)c4)cc32)c(C)c1C(=O)N1CCN(C)CC1	98.4 ± 1.2%	101 ± 2.5%	101 ± 1.8%	91.6 ± 1.4%	100 ± 2.6%	87.2 ± 1.5%	97.3 ± 1.6%	97.86 ± 0.64%	98.4 ± 2%	99.52 ± 0.97%	101.8 ± 0.38%	91.5 ± 3.8%
Cc1[nH]nc2ccc(-c3cncc(OC[C@@H](N)Cc4ccccc4)c3)cc12	114.1 ± 0.3%	108 ± 3.1%	97.8 ± 2.1%	99.05 ± 0.49%	66.5 ± 1.1%	2.57 ± 0.016%	98.7 ± 4.7%	89.14 ± 0.74%	95.77 ± 0.18%	101 ± 4%	62.2 ± 1%	6.08 ± 0.71%
